As usually defined, the IC50 is the concentration at which inhibition is half-maximal.

Data on 16 compounds can be found in ChEMBL document CHEMBL1137117, “Cinnamic acid esters as potent inhibitors of fungal 17beta-hydroxysteroid dehydrogenase--a model enzyme of the short-chain dehydrogenase/reductase superfamily” (Bioorg Med Chem Lett, 2004).

What all share (design): species or system Curvularia lunata
For test [1], the target named is T1, 17-beta-hydroxysteroid-dehydrogenase (Cochliobolus lunatus, UniProt O93874).
T1 sequence (O93874 whole entry): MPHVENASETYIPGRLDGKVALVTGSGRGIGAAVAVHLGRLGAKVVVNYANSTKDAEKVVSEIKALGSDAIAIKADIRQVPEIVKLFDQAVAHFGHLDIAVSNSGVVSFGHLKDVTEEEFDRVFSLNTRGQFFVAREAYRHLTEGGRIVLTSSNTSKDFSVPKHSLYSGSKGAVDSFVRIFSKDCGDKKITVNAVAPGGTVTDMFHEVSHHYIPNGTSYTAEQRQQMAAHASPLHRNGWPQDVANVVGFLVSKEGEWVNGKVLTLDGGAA
Put plainly: Inhibitory activity against 17 beta-hydroxysteroid dehydrogenase catalysed reduction reaction; NI=no inhibition.

Test [2] addresses T1, 17-beta-hydroxysteroid-dehydrogenase. Put plainly: Inhibitory activity against 17 beta-hydroxysteroid dehydrogenase catalysed oxidation reaction.
For test [3] the target is unchanged. Description: Inhibitory activity against 17 beta-hydroxysteroid dehydrogenase catalysed oxidation reaction; NI=no inhibition.
The target is the same in test [4]. Description: Inhibitory activity against 17 beta-hydroxysteroid dehydrogenase catalysed reduction reaction.

Regarding `O=C(/C=C/c1ccccc1)OCc1cccc(Oc2ccccc2)c1`, the results for the IC50 result in test [1] and in test [2] were “Not Active” and 130 µM, respectively. For the compound `COc1cc(COC(=O)/C=C/c2ccccc2)cc(OC)c1OC`, the IC50 entry was “Not Active” in test [1] and 14 µM in test [2]. With `COc1cc(COC(=O)c2cc3ccccc3oc2=O)cc(OC)c1OC`, the IC50 entry in test [3] and in test [1] was “Not Active” in each case.

On to `O=C(/C=C/c1ccccc1)OCN1C(=O)c2ccccc2C1=O`, for which the IC50 entry in test [1] is “Not Active”; in test [2] it was 10 µM. For `O=C(OCN1C(=O)c2ccccc2C1=O)c1cc2ccccc2oc1=O`, the IC50 entry in test [3] and in test [1] was “Not Active” throughout.

On to `N#Cc1ccc(OC(=O)/C=C/c2ccccc2)cc1`, for which the IC50 result in test [1] is “Not Active”; in test [2], 13 µM. In the case of `COc1cccc(OC(=O)/C=C/c2ccccc2)c1`, the IC50 entry in test [4] was “No inhibition”; in test [2] it was 135 µM.

For `CC(=O)Nc1ccc(OC(=O)/C=C/c2ccccc2)cc1`, the IC50 in test [4] (read-out: IC50) and in test [2] was more than 200 µM throughout.

Turning to `O=C(OCc1ccccc1)c1cc2ccccc2oc1=O`, the IC50 worked out at 8 µM in test [4] (read-out: IC50) and 2.7 µM in test [2]. In the same order, the values of `O=C(/C=C/c1ccccc1)Oc1ccccc1` [PHENYL CINNAMATE] are more than 200 µM and 26 µM.

On to `O=C(/C=C/c1ccccc1)OC1CCCCC1`, for which the half-maximal inhibitory concentration (IC50) result in test [3] and in test [1] was “Not Active” throughout. `CCCCCCCC(=O)Nc1ccc(OC(=O)/C=C/c2ccccc2)cc1`: the IC50 in test [4] (read-out: IC50) and in test [2] was more than 200 µM each time. For `O=C(/C=C/c1ccccc1)OCc1ccccc1` [BENZYL CINNAMATE], the IC50 was determined as 7 µM in test [4] (read-out: IC50) and 0.7 µM in test [2]. For `O=C(/C=C/c1ccccc1)Oc1cccc2ccccc12`, the IC50 in test [2] was found to be 10 µM. In the case of `O=C(OCCN1C(=O)c2ccccc2C1=O)c1cc2ccccc2oc1=O`, the IC50 entry in test [3] and in test [1] was “Not Active” throughout.

Turning to `O=C(/C=C/c1ccccc1)OCCN1C(=O)c2ccccc2C1=O`, the half-maximal inhibitory concentration (IC50) in test [4] (read-out: IC50) was 90 µM; in test [2], 5 µM.
